Test results taken from PMC12966373 (Nature Communications, 2026).

Legend:
[1] = Coacervate assembly via pH shift: size and number by microscopy; type: physicochemical; settings: peptide 0.5 mg/mL or higher
[2] = system: U2OS cells; experiment: Coacervate uptake and stability over 5 days in U2OS cells; type: cell-based, human; settings: particles pre-assembled at 0.5 mg/mL, diluted 1:10 to 1:3 in media; 4 h and 24 h
[3] = system: B16-F10 murine melanoma cells; experiment: Coacervate uptake in B16-F10 cells; type: cell-based, mouse; settings: particles pre-assembled at 0.5 mg/mL, diluted 1:10 to 1:3 in media; 4 h and 24 h
[4] = system: primary human monocytes; experiment: Coacervate uptake in primary human monocytes; type: cell-based; settings: particles pre-assembled at 0.5 mg/mL, diluted 1:10 to 1:3 in media; 4 h and 24 h
[5] = cited from earlier work

**Q.** For GHGVYGHGVYGHGPYGHGPYGHGLYW [HBpep], which average particle diameter [1] is on record?
**A.** > 2 µm

**Q.** And the uptake by cells [2]?
**A.** highly efficient uptake

**Q.** What about the uptake by cells [3] of the same substance?
**A.** highly efficient uptake

**Q.** What about the uptake by cells [4] of the same substance?
**A.** highly efficient uptake

**Q.** What about the “solubility in acidic buffer” value ([5]; pH 4.5) of the same substance?
**A.** largely soluble

**Q.** And the “behaviour at physiological pH” value ([5]; pH 7.4, standard conditions)?
**A.** phase separate
